Experimental data from paper PMC11133798, “Vosoritide treatment for children with hypochondroplasia: a phase 2 trial” (eClinicalMedicine, 2024).

Columns and labels:
[1] = test system: patients with achondroplasia; settings: cited from earlier work
[2] = test system: children with hypochondroplasia; set-up: species or system human; settings: in vivo
Description: The study has 3 prespecified co-primary outcomes: 1. To evaluate the safety and tolerability of daily subcutaneous injections of vosoritide administered for 12 months in patients with selected genetic causes of short stature, 2. To evaluate the change from baseline in age-sex standardized annualized growth velocity after 12 months of daily SC injections of vosoritide in patients with selected genetic causes of short stature, and 3. To evaluate the change from baseline in age-sex standardized height SDS after 12 months of daily SC injections of vosoritide in patients with selected genetic causes of short stature. Annualized growth velocity was standardized using data from the First Zurich Longitudinal Study of Growth and Development[9] as it includes growth velocity data starting at age 2.5 years. Height SDS was calculated using the United States CDC growth charts.[8] Hypochondroplasia specific height SDS was calculated using recently published hypochondroplasia growth curves.[10] To measure these outcomes, the following 3 co-primary endpoints were specified: 1. The incidence of adverse events per participant, 2. The change from baseline in age-sex standardized annualized growth velocity after 12 months of treatment, and 3. The change from baseline in age-sex standardized height SDS after 12 months of treatment. Height was measured five times at each study visit on a wall-mounted calibrated Harpenden stadiometer. The average of all five values was used. Safety assessments included routine laboratory evaluations at each visit, baseline and Month 12 echocardiograms, electrocardiograms at each visit, vital signs measurements, and spine X-rays at Day 1 and Month 12. No formal power calculations were done for this proof of principle study. Sample size was determined based on logistical feasibility. Medication adherence was calculated using the number of returned empty vials divided by the number of days of prescribed therapy. Demographics and clinical characteristics were summarized with mean and standard deviation (SD), median and interquartile (IQR) for numerical variables, frequency and proportion for categorical variables. Primary and secondary clinical outcomes were summarized with mean (SD) for the 6-month observation period and the 12-month treatment period. Paired t-tests were carried out to compare the difference between the treatment and observation periods. The corresponding p-value and 95% confidence interval (CI) were reported. Box and whisker plots were used for both primary endpoints (annualized growth velocity and height SDS) and exploratory endpoints (CXM and cGMP) to visualize the trends for the change from baseline to each of the follow-up visits. Safety data (AEs) were summarized as count and percentage of patients as well as the number of total occurrences per each listed AE for the observation period and the treatment period, respectively. As exploratory analyses, the primary endpoints were stratified based on age, baseline growth velocity and baseline height SDS. The summaries of mean (SD) for each visit, mean differences between treatment and observation periods, and the corresponding p-value and 95% CI were all reported. Parent reported quality of life using the […] scale was also reported with a similar tabular format. Data were analyzed using SAS for Windows version 9.4 (SAS Institute Inc., Cary, NC). A two-sided test with a significance level of 0.05 was used for all hypothesis tests.

Question: Which “Mean gain in height standard deviation score” value ([1]; achondroplasia, 15 µg/kg, after 42 months of intervention, ref 2 (protocol list)) does the source give for “PGQEHPNARKYKGANKKGLSKGCFGLKLDRIGSMSGLGC (disulfide) [vosoritide, recombinant 39-amino-acid C-type natriuretic peptide analog expressed in E. coli, cyclic by an intramolecular disulfide bond]” here?
Answer: 1.03 SD

Question: What about the “Efficacy of 15 µg/kg/day dose versus 30 µg/kg/day dose” value ([1]; annualized growth velocity, Phase II achondroplasia, ref 2 (protocol list)) of the same sequence?
Answer: equally efficacious to the 30 µg/kg/day dose

Question: And the Symptomatic hypotensive episode ([1]; in vivo)?
Answer: a single patient

Question: And the “Abdominal pain: # of patients” value [2]?
Answer: 5

Question: What about the “Abdominal pain: # of total occurrences” value [2] of the same sequence?
Answer: 15

Question: And the “Abdominal pain: % of patients” value [2]?
Answer: 20.8%

Question: And the “Any injection site reaction (overall): # of patients” value [2]?
Answer: 20

Question: What about the “Any injection site reaction (overall): # of total occurrences” value [2] of the same sequence?
Answer: 329

Question: What about the “Any injection site reaction (overall): % of patients” value [2] of the same sequence?
Answer: 83.3%

Question: And the “Assay for drug induced anti-platelet antibodies” value [2]?
Answer: negative

Question: What about the “Cough: # of patients” value [2] of the same sequence?
Answer: 12

Question: What about the “Cough: # of total occurrences” value [2] of the same sequence?
Answer: 20

Question: And the “Cough: % of patients” value [2]?
Answer: 50.0%

Question: What about the “Diarrhea: # of patients” value [2] of the same sequence?
Answer: 2

Question: What about the “Diarrhea: # of total occurrences” value [2] of the same sequence?
Answer: 3

Question: What about the “Diarrhea: % of patients” value [2] of the same sequence?
Answer: 8.3%

Question: What about the “Discontinuation due to a treatment related adverse event” value [2] of the same sequence?
Answer: No participants discontinued treatment

Question: What about the “Dizziness: # of patients” value [2] of the same sequence?
Answer: 3

Question: What about the “Dizziness: # of total occurrences” value [2] of the same sequence?
Answer: 4

Question: And the “Dizziness: % of patients” value [2]?
Answer: 12.5%

Question: And the “Ear infection: # of patients” value [2]?
Answer: 2

Question: And the “Ear infection: # of total occurrences” value [2]?
Answer: 2

Question: And the “Ear infection: % of patients” value [2]?
Answer: 8.3%

Question: And the “Epistaxis: # of patients” value [2]?
Answer: 3

Question: And the “Epistaxis: # of total occurrences” value [2]?
Answer: 3

Question: What about the “Epistaxis: % of patients” value [2] of the same sequence?
Answer: 12.5%

Question: What about the “Fever: # of patients” value [2] of the same sequence?
Answer: 13

Question: What about the “Fever: # of total occurrences” value [2] of the same sequence?
Answer: 29

Question: What about the “Fever: % of patients” value [2] of the same sequence?
Answer: 54.2%

Question: And the “Headache: # of patients” value [2]?
Answer: 6

Question: And the “Headache: # of total occurrences” value [2]?
Answer: 17

Question: What about the “Headache: % of patients” value [2] of the same sequence?
Answer: 25.0%

Question: What about the “Injection site bruising: # of patients” value [2] of the same sequence?
Answer: 6

Question: And the “Injection site bruising: # of total occurrences” value [2]?
Answer: 20

Question: And the “Injection site bruising: % of patients” value [2]?
Answer: 25.0%

Question: And the “Injection site erythema: # of patients” value [2]?
Answer: 13

Question: And the “Injection site erythema: # of total occurrences” value [2]?
Answer: 113

Question: And the “Injection site erythema: % of patients” value [2]?
Answer: 54.2%

Question: And the “Injection site pain: # of patients” value [2]?
Answer: 7

Question: What about the “Injection site pain: # of total occurrences” value [2] of the same sequence?
Answer: 61

Question: What about the “Injection site pain: % of patients” value [2] of the same sequence?
Answer: 29.2%

Question: What about the “Injection site swelling: # of patients” value [2] of the same sequence?
Answer: 13

Question: What about the “Injection site swelling: # of total occurrences” value [2] of the same sequence?
Answer: 116

Question: And the “Injection site swelling: % of patients” value [2]?
Answer: 54.2%

Question: What about the “Injection site urticaria: # of patients” value [2] of the same sequence?
Answer: 7

Question: And the “Injection site urticaria: # of total occurrences” value [2]?
Answer: 19

Question: What about the “Injection site urticaria: % of patients” value [2] of the same sequence?
Answer: 29.2%

Question: What about the “Laceration: # of patients” value [2] of the same sequence?
Answer: 3

Question: And the “Laceration: # of total occurrences” value [2]?
Answer: 3

Question: And the “Laceration: % of patients” value [2]?
Answer: 12.5%

Question: What about the “Nasopharyngitis: # of patients” value [2] of the same sequence?
Answer: 2

Question: And the “Nasopharyngitis: # of total occurrences” value [2]?
Answer: 2

Question: What about the “Nasopharyngitis: % of patients” value [2] of the same sequence?
Answer: 8.3%

Question: What about the “Other Grade 3 or higher adverse events” value [2] of the same sequence?
Answer: no other Grade 3 or higher adverse events

Question: And the “Rash maculo-papular: # of patients” value [2]?
Answer: 2

Question: What about the “Rash maculo-papular: # of total occurrences” value [2] of the same sequence?
Answer: 2

Question: What about the “Rash maculo-papular: % of patients” value [2] of the same sequence?
Answer: 8.3%

Question: And the “Rhinorrhea: # of patients” value [2]?
Answer: 6

Question: What about the “Rhinorrhea: # of total occurrences” value [2] of the same sequence?
Answer: 6

Question: What about the “Rhinorrhea: % of patients” value [2] of the same sequence?
Answer: 25.0%

Question: And the “Scoliosis: # of patients” value [2]?
Answer: 3

Question: And the “Scoliosis: # of total occurrences” value [2]?
Answer: 3

Question: And the “Scoliosis: % of patients” value [2]?
Answer: 12.5%

Question: And the “Severity and outcome of injection site reactions” value [2]?
Answer: grade 1 or 2 and self-resolved

Question: And the Symptomatic hypotension [2]?
Answer: no episodes of symptomatic hypotension

Question: What about the Syncope [2] of the same sequence?
Answer: One participant

Question: And the “Upper respiratory tract infection: # of patients” value [2]?
Answer: 2

Question: What about the “Upper respiratory tract infection: # of total occurrences” value [2] of the same sequence?
Answer: 2

Question: And the “Upper respiratory tract infection: % of patients” value [2]?
Answer: 8.3%

Question: And the “Vomiting: # of patients” value [2]?
Answer: 11

Question: And the “Vomiting: # of total occurrences” value [2]?
Answer: 18

Question: And the “Vomiting: % of patients” value [2]?
Answer: 45.8%
